Like-named read-outs stand apart in the source and are kept apart here. Square brackets hold non-standard residues; d marks the D form. Peptide text beside a SMILES is read from it. * marks the point of attachment. X1 = COC1=CC(=O)N(C(=O)[C@@H](O*)C(C)C)[C@H]1Cc1ccccc1; NMe2Val = CC(C)[C@@H](C(=O)*)N(C)C; NMeV = CN[C@H](C(=O)O)C(C)C
Legend:
KB-3-1 = test: Cell survival assay (SRB), KB-3-1; assay type: cell-based, human
In short: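 SRB protein stain as survival read-out; IC50 = conc. giving 50% growth inhibition. Compound serially diluted, duplicate wells, 3 d exposure; TCA fixation (10% final, 1 h, 4 °C), 0.04% SRB/1% acetic acid 10 min, solubilised in 10 mM Trizma Base, A read.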

KB-HTI-4.0 = test: Cell survival assay, KB-3-1 line made resistant to Example 129 (KB-HTI-4.0); assay type: cell-based, human
Excerpt: Cells lines with previously known mechanisms of resistance. […] Res. 8: 207-218,1996); KB-3-1 (parental derived from an epidermoid carcinoma), KB-8.5, KB-V1 (Akiyama S-I, Fojo A, Hanover J A, Pastan I, Gottesman M M. Isolation and genetic characterization of human KB cell lines resistant to multiple drugs. Somatic Cell Mol. Gen., 11: 117-126,1985; Shen D-W, Cardarelli C, Hwang J, Cornwell M, Richert N, Ishii S, Pastan I, Gottesman MM. […] J. Biol. Chem., 261: 7762-7770, 1986); and HL-60 (parental derived from human leukemia) and HL60/AR (McGrath T., Center M. S. Adriamycin resistance in HL60 cells in the absence of detectable P-glycoprotein. Biochem. Res. Commun., 145:1171-1176,1987); A549 and A549.EpoB40 (He L., Yang C.-P.H., Horwitz S. B. Mutations in p-tubulin map to domains involved in regulation of microtubule stability in epothilone-resistant cell lines. Molecular Cancer Therapeutics. 1: 3-10, 2001). HCT-15 human colon carcinoma and DLD-1 human colon carcinoma are obtained from American Tissue Culture Collection. The MX-1W carcinoma is a Wyeth variant orginally obtained as MX-1 breast carcinoma from the National Cancer Institute. Cell lines selected for resistance to Representative Example 129. KB-3-1 cells are selected for resistance to Example 129 by chronically exposing cells to increasing concentrations of Example 129.
2.2. Cell Survival Assay: Standard Pharmacological Test Procedure. The concentration of candidate inhibitor required to inhibit 50% of cell growth (IC50) is done according to previously reported methods. […] Compounds are serially diluted into media as 2× stocks and 100 μl added to cells in duplicate. Compounds are incubated with cells for 3 days. At the end of the incubation period the sulforhodamine B (SRB) assay, which measures protein content as an assessment of cell survival, is performed as described previously (Skehan P, Storeng R, Scudiero D, Monks A, McMahon J, Vistica D, Warren J T, Bokesch H, Kenney S, Boyd MR. New calorimetric cytotoxicity assay for anticancer-drug screening. J Natl Cancer Inst 1990 Jul 4;82(13):1107-12) with some modification as follows. For KB-3-1 cells with 20% FCS, media is gently decanted and replaced with 200 μl of serum-free media mixed with cold 50% TCA for a final concentration of 10% TCA. The plates are incubated for 1 hr at 4° C., followed by washing 5 times in cold distilled water, then air dried overnight. The fixed cells are stained for 10 min with 80 μl of 0.04% SRB solution prepared in 1% glacial acetic acid. Stain is discarded and plates washed 5 times in 1% glacial acetic acid, then air-dried until completely dry. Stained cell product is dissolved in 150 μl of 10 mM Trizma Base and placed on a shaker for 20 minutes until fully dissolved. Absorbance is read on a Victor V multi-label plate reader (Perkin Elmer, Gaithersburg, Md.).
Cells are selected for resistance to Example 129 to understand the frequency and mechanistic basis of resistance.

[1] = system: Human Melanoma Carcinoma Lox; details: staged LOX xenograft; at MTD ('<': MTD not achieved); days 11-15
Experimental: 2.4. Growth of Tumors in Nude Mice. […] In these experiments, xenografts are implanted subcutaneously into the flanks of nude mice. […] Relative tumor mass compared to controls are assessed during the 21-day post-staging period.
Groups of 5 female nu/nu mice are injected with 1.5×10^6 KB-3-1 (A) or Lox cells (B). […] Relative tumor growth is determined during the experiment and % T/C calculated. Statistical analyses are Student's t-test of treated time points vs. vehicle (*, P<0.05; **, P<0.01)

KB-8-5 (MDR1+) = test: Cell survival assay (SRB), KB-8-5 (MDR1+); details: for IC50: Homo sapiens
KB-V1 (MDR1++) = test: Cell survival assay (SRB), KB-V1 (MDR1++); details: for IC50: Homo sapiens
[2] = Homo sapiens, KB-3-1 parental, Table 8, read-out: KB-3-1 IC50
[3] = Homo sapiens, KB-3-1 line made resistant to Example 129, Table 8, read-out: KB-HTI-4.0 IC50
[4] = KB-3-1 parental, Table 8, read-out: KB-3-1 IC50
[5] = KB-3-1 line made resistant to Example 129, Table 8, read-out: KB-HTI-4.0 IC50
[6] = Homo sapiens, KB 3-1, 72 h, amount of drug needed to kill 50% of cells after three days continuous exposure, Table 11, read-out: IC50 in parental cell line KB-3-1
[7] = Homo sapiens, KB 3-1, KB-3-1 cells (paclitaxel-sensitive parent), read-out: In vitro IC50 (nM) KB-3-1
[8] = MDR1, read-out: In vitro IC50 (nM) KB85
[9] = read-out: In vitro IC50 (nM) KBV1

Compound	IC50 (KB-3-1; [2]) [nM]	IC50 (KB-HTI-4.0; [3]) [nM]	(RR) relative resistance vs. parental cells (KB-HTI-4.0; KB-HTI-4.0 vs KB-3-1)	IC50 (KB-3-1; [6]) [nM]	IC50 (KB-3-1; [7]) [nM]	Activity in nude mice animal model (% T/C @ MTD on days 11-15) LOX [1]	Ratio KB85/KB (KB-8-5 (MDR1+))	IC50 (KB-8-5 (MDR1+); [8]) [nM]	Ratio KBV1/KB (KB-V1 (MDR1++))	IC50 (KB-V1 (MDR1++); [9]) [nM]	also measured
C(=N\NC1=NCCN1)/c1c2ccccc2c(/C=N/NC2=NCCN2)c2ccccc12 [Bisantrene]	119 ± 47	299 ± 91	(3)	–	–	–	–	–	–	–	–
CC[C@@]1(O)C(=O)OCc2c1cc1n(c2=O)Cc2cc3ccccc3nc2-1 [Camptothecin, camptothecin]	14.9 ± 6.11	335 ± 157	(23)	–	–	–	–	–	–	–	–
COC1=CC(=O)N(C(=O)[C@@H](OC(=O)[C@@H]2CCCN2C(=O)[C@@H]2CCCN2C(=O)[C@H](C(C)C)N(C)C(=O)[C@@H](NC(=O)[C@H](C(C)C)N(C)C)C(C)C)C(C)C)[C@H]1Cc1ccccc1 [Dolastatin −15] (NMe2Val-V[NMeV]PP-X1)	–	–	(12)	–	–	–	–	–	–	–	IC50 (KB-3-1; [4]): 0.04 ± 0.05 nM; IC50 (KB-HTI-4.0; [5]): 0.49 ± 0.14 nM
CO[C@]12C=C[C@](C)(O1)[C@@H](OC(=O)/C=C/c1cn(C)cn1)C[C@H]1C(C)=CC[C@H](C(C)C)[C@H]1/C=C\2CO[C@@H]1OC[C@@H](O)[C@@H](O)[C@@H]1OC(C)=O [Eleutherobin]	–	–	–	–	–	–	–	–	–	–	IC50 (KB-3-1; Homo sapiens, KB 3-1, read-out: KB-3-1 IC50, nM): 17.4 ± 1.63 nM; (RR) relative resistance vs. parental cells (KB-HTI-4.0): (1); IC50 (KB-HTI-4.0; Homo sapiens, KB 3-1, read-out: KB-HTI-4.0 IC50, nM): 21.3 ± 4.4 nM
CN[C@H](C(=O)N[C@H](C(=O)N(C)[C@H](/C=C(\C)C(=O)O)C(C)C)C(C)(C)C)C(C)(C)c1cccc(Cl)c1 [Example 2, 3-Chloro-N,β,β-trimethyl-L-phenylalanyl-N^1-[(1S,2E)-3-carboxy-1-isopropyl-2-butenyl]-N^1,3-dimethyl-L-valinamide]	–	–	–	1.1	1.14	9%	2.8	3.2	80.0	91	–
CN[C@H](C(=O)N[C@H](C(=O)N(C)[C@H](/C=C(\C)C(=O)O)C(C)C)C(C)(C)C)C(C)(C)c1ccc(C)c(C)c1 [Example 14, N,β,β,3,4-Pentamethyl-L-phenylalanyl-N^1-[(1S,2E)-3-carboxy-1-isopropyl-2-butenyl]-N^1,3-dimethyl-L-valinamide]	–	–	–	0.4	0.408	2%	2.8	1.13	95.6	39	–
CN[C@H](C(=O)N[C@H](C(=O)N(C)[C@H](/C=C(\C)C(=O)O)C(C)C)C(C)(C)C)C(C)(C)c1cccs1 [Example 20, N-Methyl-3-(2-thienyl)-L-valyl-N^1-[(1S,2E)-3-carboxy-1-isopropyl-2-butenyl]-N^1,3-dimethyl-L-valinamide]	–	–	–	2	2	3%	2.0	3.9	80.9	162	–
C/C(=C\[C@H](C(C)C)N(C)C(=O)[C@@H](NC(=O)[C@@H](N(C)C)C(C)(C)c1ccccc1)C(C)(C)C)C(=O)O [Example 52, N,N,β, β-Tetramethyl-L-phenylalanyl-N^1-[(1S,2E)-3-carboxy-1-isopropyl-2-butenyl]-N^1,3-dimethyl-L-valinamide]	–	–	–	1.6	1.55	1%	2.4	3.7	74.6	116	–
CN[C@H](C(=O)N[C@H](C(=O)N(C)[C@H](/C=C(\C)C(=O)O)C(C)C)C(C)(C)C)C(C)(C)c1ccc(OC)cc1 [Example 57, N,O,β,β-tetramethyl-L-tyrosyl-N^1-[(1S,2E)-3-carboxy-1-isopropyl-2-butenyl]-N^1,3-dimethyl-L-valinamide]	–	–	–	1.4	1.4	<1^4%	2.9	4.1	102.0	142	–
C=CC(C)(C)[C@H](NC(=O)[C@@H](NC)C(C)(C)c1ccccc1)C(=O)N(C)[C@H](/C=C(\C)C(=O)O)C(C)C [Example 120, (2E,4S)4-[{(2S)-3,3-dimethyl-2-[(N,β,β-trimethyl-L-phenylalanyl)amino]4-pentenoyl}(methyl)amino]-2,5-dimethyl-2-hexenoic Acid]	–	–	–	3.5	–	20%	–	–	–	–	–
COc1cc2cc(c1Cl)N(C)C(=O)C[C@H](OC(=O)[C@H](C)N(C)C(C)=O)[C@]1(C)O[C@H]1[C@H](C)[C@@H]1C[C@@](O)(NC(=O)O1)[C@H](OC)/C=C/C=C(\C)C2 [Maytansine]	0.06	0.84 ± 0.19	(14)	–	–	–	–	–	–	–	–
C=C(C)[C@@H]1NC(=O)[C@@H](NC)[C@@H](O)c2cc(Cl)c(O)c(c2)O[C@](C)(CC)[C@@H](C(=O)N2CC=C[C@H]2C(=O)N/C(C(=O)N/C(=C/C(=O)O)C(=O)O)=C(\C)CC)NC1=O [Phomopsin A]	–	–	(5)	–	–	–	–	–	–	–	IC50 (KB-3-1; [4]): 671 ± 55 nM; IC50 (KB-HTI-4.0; [5]): 3530 ± 2990 nM
CO[C@@H](/C(C)=C/C=C/C(C)=C/c1coc(C)n1)[C@@H](C)[C@@H]1C[C@H](O)[C@@]2(C)O[C@@H]2/C=C/[C@@H](C)[C@H]2C[C@H](CC(=O)O2)C[C@@H]2O[C@H]2C(=O)O1 [Rhizoxin]	–	98.4 ± 37.6	(11)	–	–	–	–	–	–	–	IC50 (KB-3-1; Homo sapiens, KB 3-1, KB-3-1 parental, Table 8, read-out: KB-3-1 IC50): 9.13 ± 2.17 nM
CC[C@@]1(O)C(=O)OCc2c1cc1n(c2=O)Cc2cc3c(CN(C)C)c(O)ccc3nc2-1 [Topotecan, topotecan]	18.1 ± 2.98	1030 ± 541	(57)	–	–	–	–	–	–	–	–
CCC1=C[C@@H]2CN(C1)Cc1c([nH]c3ccccc13)[C@@](C(=O)OC)(c1cc3c(cc1OC)N(C)[C@H]1[C@@](O)(C(=O)OC)[C@H](OC(C)=O)[C@]4(CC)C=CCN5CC[C@]31[C@@H]54)C2 [vinorelbine, reference compound]	1.22 ± 0.33	8.64 ± 2.94	(7)	–	–	–	–	–	–	–	IC50 (KB-3-1; Homo sapiens, KB-3-1 parental, Table 3, read-out: KB-3-1 IC50, nM (N)): 3.5 nM; IC50 (KB-8-5 (MDR1+); MDR1, read-out: KB-8-5 (MDR1+) IC50, nM (N)): 132 nM; RR, relative resistance (KB-8-5 (MDR1+); IC50 KB-8-5 / IC50 KB-3-1, Table 3): 38; resistance of KB-8-5 cells (KB-8-5 (MDR1+); KB-8-5 (KB-85) vs KB-3-1, in vitro): 38 fold; IC50 (KB-V1 (MDR1++); read-out: KB-V1 (MDR1++) IC50, nM (N)): > 3000 nM; RR, relative resistance (KB-V1 (MDR1++); IC50 KB-V1 / IC50 KB-3-1, Table 3): >857
dolastatin	–	–	–	–	–	–	–	–	–	–	resistance of KB-3-1-derived cell lines selected with Example 129 (KB-HTI-4.0; vs KB-3-1): 28 fold
